Experimental findings from ChEMBL document CHEMBL5360672, “Identification of Novel Dual-Target Estrogen Receptor α Degraders with Tubulin Inhibitory Activity for the Treatment of Endocrine-Resistant Breast Cancer” (J Med Chem, 2023) are described below.

Structures are written as SMILES. pIC50: −log10 of the molar value. Activity calls are given as the source filed them. The rule behind the calls is not given here.

Data set [1] concerns T47D. In words: Antiproliferative activity against ERalpha positive human T47D cells assessed as inhibition of cell proliferation incubated for 72 hrs by CCK8 assay. Format: functional, cell-based. On the technique in general: Formazan colour is commonly taken as a measure of viable cells.
Data set [2] has as its target T1, Estrogen receptor (Homo sapiens) (UniProt P03372).
T1 sequence (whole entry): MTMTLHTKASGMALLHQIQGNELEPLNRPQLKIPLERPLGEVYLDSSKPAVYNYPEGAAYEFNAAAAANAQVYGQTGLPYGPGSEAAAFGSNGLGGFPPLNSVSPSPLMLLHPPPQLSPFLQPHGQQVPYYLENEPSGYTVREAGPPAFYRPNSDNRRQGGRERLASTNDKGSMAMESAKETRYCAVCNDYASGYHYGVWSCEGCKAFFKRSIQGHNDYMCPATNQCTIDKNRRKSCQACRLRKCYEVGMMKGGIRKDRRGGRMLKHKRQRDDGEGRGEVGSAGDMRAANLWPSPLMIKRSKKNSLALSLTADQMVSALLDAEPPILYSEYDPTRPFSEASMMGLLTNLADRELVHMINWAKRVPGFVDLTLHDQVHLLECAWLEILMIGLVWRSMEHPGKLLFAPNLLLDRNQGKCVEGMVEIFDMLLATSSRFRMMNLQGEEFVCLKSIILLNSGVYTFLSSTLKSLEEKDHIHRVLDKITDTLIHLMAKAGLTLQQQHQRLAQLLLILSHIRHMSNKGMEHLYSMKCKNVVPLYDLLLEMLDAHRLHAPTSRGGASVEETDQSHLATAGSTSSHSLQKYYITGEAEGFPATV
Put plainly: Binding affinity to human ERalpha assessed as relative binding affinity incubated under vibration for 1 min followed by 2 hrs incubation under dark condition by fluorescence polarization assay relative to estradiol. The note with it: time 121.0 min. On the technique in general: In fluorescence polarisation assays a small probe gives low polarisation when free and higher when bound to something large.

Data set [3] has as its system T47D. In words: Antiproliferative activity against human T47D cells harboring ERalpha D538G mutant assessed as inhibition of cell proliferation incubated for 72 hrs by CCK8 assay. Format: functional, cell-based.
Data set [4] is described as follows: Selectivity index, ratio of IC50 for cytotoxicity against human MCF-10A cells to IC50 for antiproliferative activity against human MCF7 cells. It is filed as toxicity, cell-based. The following applies: MCF-10A cells and MCF7 cells, read-out: Ratio IC50.
The target of data set [5] is T1, Estrogen receptor (Homo sapiens). In words: Induction of ERalpha degradation in human MCF7 cells at 5 uM incubated for 24 hrs by Western blot analysis relative to SeCN-OBHSA derivatives. Format: cell-based. Background: In western blotting, separated proteins are transferred to a membrane and probed.
Data set [6] relates to T47D. In words: Antiproliferative activity against human T47D cells harboring ERalpha Y537S mutant assessed as inhibition of cell proliferation incubated for 72 hrs by CCK8 assay. It is filed as functional, cell-based.
For data set [7], the target named is Estrogen receptor beta (Homo sapiens) (UniProt Q92731). Put plainly: Binding affinity to human ERbeta assessed as relative binding affinity incubated under vibration for 1 min followed by 2 hrs incubation under dark condition by fluorescence polarization assay relative to estradiol. The following applies: time 121.0 min.
The nature of data set [8]: Antiproliferative activity against human Tamoxifen-resistant LCC2 cells assessed as inhibition of cell proliferation incubated for 72 hrs by CCK8 assay. Format: functional, cell-based.
The species named for data set [9] is Homo sapiens. In words: Selectivity ratio of relative binding affinity for human ERalpha to relative binding affinity to human ERbeta.
Data set [10] is described as follows: Cytotoxicity against human MCF-10A cells assessed as inhibition of cell proliferation incubated for 72 hrs by CCK8 assay. Format: toxicity, cell-based.
The test system of data set [11] is MCF7. Put plainly: Antiproliferative activity against ERalpha positive human MCF7 cells assessed as inhibition of cell proliferation incubated for 72 hrs by CCK8 assay. Format: functional, cell-based. The following applies: MCF7, 72 h.

Estrogen receptor beta (Homo sapiens), sequence (Q92731 whole entry): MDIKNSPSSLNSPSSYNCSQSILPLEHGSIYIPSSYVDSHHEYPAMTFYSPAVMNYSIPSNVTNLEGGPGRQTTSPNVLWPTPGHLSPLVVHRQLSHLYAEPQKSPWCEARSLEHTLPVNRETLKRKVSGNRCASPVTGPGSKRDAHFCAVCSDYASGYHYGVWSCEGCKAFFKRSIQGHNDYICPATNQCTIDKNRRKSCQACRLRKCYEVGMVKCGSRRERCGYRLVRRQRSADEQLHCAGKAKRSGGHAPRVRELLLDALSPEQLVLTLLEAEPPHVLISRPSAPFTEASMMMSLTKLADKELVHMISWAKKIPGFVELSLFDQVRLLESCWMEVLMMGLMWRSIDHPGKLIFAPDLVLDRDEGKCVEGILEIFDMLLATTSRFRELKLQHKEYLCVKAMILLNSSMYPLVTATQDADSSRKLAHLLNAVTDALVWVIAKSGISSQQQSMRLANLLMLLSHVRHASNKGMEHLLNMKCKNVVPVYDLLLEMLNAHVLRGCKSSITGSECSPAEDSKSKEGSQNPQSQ

Consider `CCN(c1ccc(Cl)cc1)S(=O)(=O)C1CC2OC1C(c1ccc(NC(=O)CCCCC[Se]C#N)cc1)=C2c1ccc(O)cc1` (centres undefined), for which the pIC50 – broadly, the IC50 on a negative log10 scale, so that one unit is a factor of ten – in data set [1] was 5.25; in data set [3], 5.17; in data set [6], 5.35; in data set [8], 5.40; in data set [11], 6.36. The RBA is 2.31% in data set [2] and 0.06% in data set [7]. The selectivity ratio in data set [4] is 66.3. Also, the outcome in data set [5] was Active. For the same compound, in data set [9], the Selectivity ratio is 38.5. Besides, the IC50 (as a rule, the concentration at which inhibition is half-maximal) at 72 h in data set [10] turned out to be 29.2 µM.

For the compound `CCN(c1cccc(F)c1)S(=O)(=O)C1CC2OC1C(c1ccc(NC(=O)CCCCC[Se]C#N)cc1)=C2c1ccc(O)cc1` (centres undefined), the pIC50 in data set [1] is 5.47; in data set [3] it was 5.63; in data set [6], 5.62; in [8], 5.60; in [11] it was 6.44. The RBA in data set [2] came out at 0.79%; in data set [7], 0.03%. In data set [4], the selectivity ratio came to 30.6. Moreover, in [5], the outcome was Active. For the same compound, the Selectivity ratio in [9] worked out at 26.3. Moreover, in data set [10], the IC50 at 72 h was 11 µM.

As to `CCN(c1cccc(OC)c1)S(=O)(=O)C1CC2OC1C(c1ccc(NC(=O)CCCCC[Se]C#N)cc1)=C2c1ccc(O)cc1` (centres undefined), the pIC50 in [1] was 4.85; in data set [3] it was 4.70; in data set [6] it was 5.03; in data set [8], 4.88; in [11] it was 5.55. Besides, the RBA in data set [2] is 0.51%; in data set [7] it was 0.2%. In addition, in data set [4], the selectivity ratio was determined as 32.5. The outcome in data set [5] was Active. Further, in data set [9], the Selectivity ratio is 2.55. In data set [10], the IC50 at 72 h stood at 91.5 µM.

`CCN(c1ccccc1OC)S(=O)(=O)C1CC2OC1C(c1ccc(NC(=O)CCCCC[Se]C#N)cc1)=C2c1ccc(O)cc1` (centres undefined): the negative logarithm of the IC50 (pIC50) in [1] is 5.41; in data set [3], 5.26; in data set [6], 5.43; in data set [8], 5.18; in data set [11], 6.38. For the same compound, the RBA in [2] was found to be 2.82%; in [7], 0.03%. In addition, the selectivity ratio in data set [4] worked out at 37.9. The outcome in data set [5] was Active. Further, in data set [9], the Selectivity ratio was determined as 94. The IC50 at 72 h in data set [10] stood at 15.9 µM.

In the case of `COc1cccc(N(CC(F)(F)F)S(=O)(=O)C2CC3OC2C(c2ccc(NC(=O)CCCCC[Se]C#N)cc2)=C3c2ccc(O)cc2)c1` (centres undefined), the pIC50 in data set [1] was 5.02; in data set [3], 5.29; in data set [6], 5.34; in data set [8], 5.17; in data set [11], 6.33. For the same compound, the RBA worked out at 1.44% in [2] and 0.13% in [7]. Besides, the selectivity ratio in [4] turned out to be 57.1. The result in data set [5] was Active. The Selectivity ratio in [9] stood at 11.1. The IC50 at 72 h in data set [10] stood at 26.9 µM.

As to `CCN(c1ccc(OC)cc1)S(=O)(=O)C1CC2OC1C(c1ccc(NC(=O)CCC[Se]C#N)cc1)=C2c1ccc(O)cc1` (centres undefined), the pIC50 in data set [1] was 5.13; in [3], 5.05; in [6], 5.17; in data set [8], 4.76; in data set [11], 5.79. The RBA in data set [2] worked out at 1.07%; in [7] it was 0.17%. Further, the selectivity ratio in data set [4] is greater than 61.4. In [5], the result was Active. Moreover, the Selectivity ratio in [9] was found to be 6.29. For the same compound, the IC50 at 72 h in [10] is greater than 100 µM.

As for `N#C[Se]CCCCCC(=O)Nc1ccc(C2=C(c3ccc(O)cc3)C3CC(S(=O)(=O)N(CC(F)(F)F)c4cccc(F)c4)C2O3)cc1` (centres undefined), the pIC50 in [1] is 5.54; in data set [3], 5.54; in data set [6] it was 5.47; in data set [8], 5.71; in data set [11], 6.51. The RBA in [2] turned out to be 4.64%; in [7], 0.1%. Besides, the selectivity ratio in data set [4] is 15.3. Moreover, the result in data set [5] was Active. The Selectivity ratio in [9] came out at 46.4. The IC50 at 72 h in data set [10] amounted to 4.74 µM.

For `CCN(c1ccc(OC)cc1)S(=O)(=O)C1CC2OC1C(c1ccc(NC(=O)CCCCCCC[Se]C#N)cc1)=C2c1ccc(O)cc1` (centres undefined), the pIC50 in data set [1] is 4.75; in data set [3] it was 5.13; in data set [6], 5.15; in [8], 4.87; in data set [11], 6.18. The RBA was found to be 2.61% in data set [2] and 0.1% in data set [7]. Moreover, the selectivity ratio in [4] was found to be 45.1. Besides, in data set [5], the outcome was Active. In addition, in data set [9], the Selectivity ratio amounted to 26.1. The IC50 at 72 h in [10] worked out at 29.8 µM.

With `N#C[Se]CCCCCC(=O)Nc1ccc(C2=C(c3ccc(O)cc3)C3CC(S(=O)(=O)N(CC(F)(F)F)c4ccc(Cl)cc4)C2O3)cc1` (centres undefined), the pIC50 in data set [1] was 4.87; in [3], 5.29; in data set [6], 5.36; in data set [8], 5.17; in [11], 6.60. Further, the RBA in data set [2] turned out to be 7.52%; in data set [7], 0.01%. The selectivity ratio in [4] amounted to 130. Moreover, the outcome in data set [5] was Active. Further, in data set [9], the Selectivity ratio was determined as 752. Moreover, the IC50 at 72 h in data set [10] amounted to 32.4 µM.

Consider `COc1ccc(N(CC(F)(F)F)S(=O)(=O)C2CC3OC2C(c2ccc(NC(=O)CCC[Se]C#N)cc2)=C3c2ccc(O)cc2)cc1` (centres undefined), for which the pIC50 in data set [1] was 4.70; in data set [3], 4.76; in data set [6] it was 4.93; in data set [8] it was 5.00; in data set [11] it was 5.53. Besides, the figures for the RBA in data set [2] and in [7] were 0.46% and 0.38%, respectively. Also, in data set [4], the selectivity ratio was greater than 33.9. The outcome in data set [5] was Active. The Selectivity ratio in data set [9] amounted to 1.21. Also, the IC50 at 72 h in data set [10] was greater than 100 µM.

For the compound `CCN(c1cccc(Cl)c1)S(=O)(=O)C1CC2OC1C(c1ccc(NC(=O)CCCCC[Se]C#N)cc1)=C2c1ccc(O)cc1` (centres undefined), the pIC50 in data set [1] is 5.42; in data set [3], 5.72; in [6], 5.52; in data set [8], 5.58; in [11], 6.55. The figures for the RBA in data set [2] and in data set [7] were 5.56% and 0.09%, respectively. In addition, in data set [4], the selectivity ratio came out at 33. Moreover, in [5], the outcome was Active. Also, the Selectivity ratio in data set [9] came to 61.8. Further, the IC50 at 72 h in [10] was determined as 9.23 µM.

Consider `CCN(c1ccccc1Cl)S(=O)(=O)C1CC2OC1C(c1ccc(NC(=O)CCCCC[Se]C#N)cc1)=C2c1ccc(O)cc1` (centres undefined), for which the pIC50 in data set [1] is 5.51; in data set [3], 5.63; in data set [6], 5.66; in data set [8], 5.66; in data set [11], 6.80. Moreover, the results for the RBA in data set [2] and in [7] were 2.69% and 0.09%, respectively. The selectivity ratio in [4] stood at 108. Further, the result in [5] was Active. In [9], the Selectivity ratio turned out to be 29.9. Besides, the IC50 at 72 h in data set [10] amounted to 17.3 µM.

`N#C[Se]CCCCCC(=O)Nc1ccc(C2=C(c3ccc(O)cc3)C3CC(S(=O)(=O)N(CC(F)(F)F)c4ccc(F)cc4)C2O3)cc1` (centres undefined): the pIC50 is 5.24 in [1]; 5.57 in data set [3]; 5.57 in [6]; 5.35 in [8]; 6.77 in data set [11]. In addition, the RBA in data set [2] was 7.18%; in [7] it was 0.38%. In data set [4], the selectivity ratio came to 71.9. Further, the outcome in data set [5] was Active. Also, the Selectivity ratio in data set [9] came out at 18.9. The half-inhibitory concentration (IC50) at 72 h in [10] was determined as 12.2 µM.

Regarding `N#C[Se]CCCCCC(=O)Nc1ccc(C2=C(c3ccc(O)cc3)C3CC(S(=O)(=O)N(CC(F)(F)F)c4ccccc4)C2O3)cc1` (centres undefined), the pIC50 is 4.56 in [1]; 4.76 in [3]; 4.72 in data set [6]; 4.69 in data set [8]; 5.72 in [11]. Also, the RBA in data set [2] was determined as 0.39%; in data set [7] it was 0.03%. Also, the selectivity ratio in data set [4] amounted to 30.5. In addition, the outcome in data set [5] was Active. Further, the Selectivity ratio in data set [9] came out at 13. In [10], the IC50 at 72 h was 57.6 µM.
